Measured values from patent US5559113A, “Imidazole compounds and their therapeutic applications” (Institut National de la Sante et de la Recherche Medicale, priority 1992, dated 1996).

target: T1, H3 receptors of the brain of the rat (Rattus norvegicus, UniProt Q9QYN8); experiment: Antagonism of the inhibition by exogenous histamine of release in rat cerebral cortex sections (central H3 receptors); format: cell-based; conditions: not given
T1 construct: This method requires rat cerebral cortex sections; from tissue; host or cells: rat cerebral cortex sections
Description: This method requires rat cerebral cortex sections and has made possible the pharmacological characterization of the H3 receptors (Nature, 1987, 327, 117-123).

T1 sequence (Q9QYN8 whole entry): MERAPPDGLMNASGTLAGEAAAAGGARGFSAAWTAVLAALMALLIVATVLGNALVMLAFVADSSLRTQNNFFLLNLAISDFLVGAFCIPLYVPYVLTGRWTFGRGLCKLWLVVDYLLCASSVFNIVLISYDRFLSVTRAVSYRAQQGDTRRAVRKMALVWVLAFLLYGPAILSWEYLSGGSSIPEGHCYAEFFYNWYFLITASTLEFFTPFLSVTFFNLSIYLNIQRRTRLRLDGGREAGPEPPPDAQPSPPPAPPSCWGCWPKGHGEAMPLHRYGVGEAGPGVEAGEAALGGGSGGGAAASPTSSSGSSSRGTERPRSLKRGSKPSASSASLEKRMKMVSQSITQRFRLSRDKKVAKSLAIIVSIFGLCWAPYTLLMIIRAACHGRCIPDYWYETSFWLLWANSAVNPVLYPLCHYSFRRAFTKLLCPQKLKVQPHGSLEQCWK

`CC(CC(=O)NCCCc1c[nH]cn1)c1ccccc1` (racemic) [Example 15, (R,S)-(+)-N-(3-(1H-Imidazol-4-yl)propyl)-3-phenylbutanamide] and `O=C(CCc1ccccc1)NCCCc1c[nH]cn1` [Example 2, N-(3-(1H-Imidazol-4-yl)propyl)-3-phenylpropanamide] are within 1.5-fold of each other in Ki: 35 nM for the first, 49 nM for the second.

First: O=C(CCCC1CCCCC1)NCCCc1c[nH]cn1 [Example 7, N-(3-(1H-Imidazol-4-yl)propyl)-4-cyclohexylbutanamide]
Second: S=C(CCC1CCCC1)NCCCc1c[nH]cn1 [Example 22, N-(3-(1H-Imidazol-4-yl)propyl)-3-cyclopentylpropanethioamide]
The Ki of the first is 5.4-fold higher: 59 nM for the first, 11 nM for the second. The second binds more tightly here.

First: O=C(CCC1CCCC1)NC/C=C/c1c[nH]cn1 [Example 19, (E)-N-(3-(1H-Imidazol-4-yl)allyl)-3-cyclopentylpropanamide]
Second: O=C(CCC1CCCC1)OCCCc1c[nH]cn1 [Example 24, 3-(1H-Imidazol-4-yl)propyl ester of 3-cyclopentylpropanoic acid]
The Ki of the first is 14-fold higher: 42 nM for the first, 3 nM for the second. The second binds more tightly here.

`Brc1ccc(CCCOCCCc2c[nH]cn2)cc1` [Example 38, 3-(4-Bromophenyl)propyl 3-(1H-imidazol-4-yl)propyl ether] and `Clc1ccc(CCCOCCCc2c[nH]cn2)cc1` [Example 85, 3-(4-Chlorophenyl)propyl 3-(1H-imidazol-4-yl)propyl ether] are within error of each other in Ki: 15 ± 4 nM for the first, 13 ± 4 nM for the second.

`c1ccc(CCCOCCCc2c[nH]cn2)cc1` [Example 45, 3-Phenylpropyl 3-(1H-imidazol-4-yl)propyl ether] and `O=C(CCCc1ccccc1)CCCc1c[nH]cn1` [Example 49, 1-(1H-Imidazol-4-yl)-7-phenylheptan-4-one] are within error of each other in Ki: 17 ± 3 nM for the first, 20 nM for the second.

First: N#CN=C(NCCCc1cnc[nH]1)NCC1CCCCC1 [Example 51, N-Cyano-N'-[3-(1H-imidazol-4-yl)propyl]-N"-cyclohexylmethylguanidine]
Second: Fc1ccc(CCCOCCCc2c[nH]cn2)cc1 [Example 88, 3-(4-Fluorophenyl)propyl 3-(1H-imidazol-4-yl)propyl ether]
The Ki of the first is 2.9-fold higher: 20 nM for the first, 7 ± 2 nM for the second. The second binds more tightly here.

First: Clc1ccc(COCCCc2c[nH]cn2)cc1 [Example 86, (4-Chlorophenyl)methyl 3-(1H-imidazol-4-yl)propyl ether]
Second: c1ccc2sc(NCCc3c[nH]cn3)nc2c1 [Example 91, 2-{[2-(1H-Imidazol-4-yl)ethyl]amino}benzothiazole]
The Ki of the first is 21-fold lower: 18 nM for the first, 380 nM for the second.

Compound `O=[N+]([O-])c1ccc(NCCc2c[nH]cn2)nc1` [Example 94, 2-{[2-(1H-Imidazol-4-yl)ethyl]amino}-5-nitropyridine] has a Ki of 38 nM.

same assay, conditions: read-out: Apparent dissociation constant (Ki) as antagonist of histamine on the H3 receptors of the brain of the rat; rat cerebral cortex sections; exogenous histamine 1 μM; Ki calculated from IC50 according to Cheng and Prusoff

Compared with `c1nc(CCCOCCCC2CCCCC2)c[nH]1` [Example 36, 3-Cyclohexylpropyl 3-(1H-imidazol-4-yl)propyl ether], `O=C(NCC1CC1)OCCCc1c[nH]cn1` [Example 57, 3-(1H-Imidazol-4-yl)propyl N-(cyclopropylmethyl)carbamate] is 2.6-fold higher in Ki: 20 ± 8 nM for the first, 52 nM for the second. The first binds more tightly here.

First: O=C(NC(=O)c1ccccc1)OCCCc1c[nH]cn1 [Example 55, 3-(1H-Imidazol-4-yl)propyl N-benzoylcarbamate]
Second: O=C(Nc1ccccc1)OCCCc1c[nH]cn1 [Example 61, 3-(1H-Imidazol-4-yl)propyl N-phenylcarbamate]
The Ki of the first is 6.8-fold higher: 95 nM for the first, 14 ± 8 nM for the second. The second binds more tightly here.

First: O=C(NCc1ccc([N+](=O)[O-])cc1)OCCCc1c[nH]cn1 [Example 67, 3-(1H-Imidazol-4-yl)propyl N-(4-nitrobenzyl)carbamate]
Second: O=[N+]([O-])c1ccc(OCCc2c[nH]cn2)cc1 [Example 110, 4-[2-(4-Nitrophenoxy)ethyl]-1H-imidazole]
The Ki of the first is 2.3-fold lower: 15 nM for the first, 35 ± 6 nM for the second.

First: O=C(Nc1ccc(F)cc1)OCCCc1c[nH]cn1 [Example 73, 3-(1H-Imidazol-4-yl)propyl N-(4-fluorophenyl)carbamate]
Second: N#Cc1ccc(OCCCc2c[nH]cn2)cc1 [Example 130, 4-[3-(4-Cyanophenoxy)propyl]-1H-imidazole]
The Ki of the first is 2-fold higher: 24 ± 4 nM for the first, 12 ± 3 nM for the second. The second binds more tightly here.

First: CN(Cc1ccccc1)C(=O)OCCCc1c[nH]cn1 [Example 83, 3-(1H-Imidazol-4-yl)propyl N-benzyl-N-methylcarbamate]
Second: CCCc1ccc(OCCc2c[nH]cn2)cc1 [Example 117, 4-[2-(4-Propylphenoxy)ethyl]-1H-imidazole]
The Ki of the first is 2.2-fold higher: 42 nM for the first, 19 ± 9 nM for the second. The second binds more tightly here.

`O=[N+]([O-])c1ccc(SCCc2c[nH]cn2)nc1` [Example 107, 2-{2-[1H-Imidazol-4-yl]ethylthio}-5-nitropyridine] and `N#Cc1ccc(OCCc2c[nH]cn2)cc1` [Example 112, 4-[2-(4-Cyanophenoxy)ethyl]-1H-imidazole] are within error of each other in Ki: 4.8 ± 0.9 nM for the first, 9 ± 5 nM for the second.

Compared with `c1ccc2cc(OCCc3c[nH]cn3)ccc2c1` [Example 125, 4-[2-(2-Naphthyloxy)ethyl]-1H-imidazole], `FC(F)(F)c1ccc(OCCCc2c[nH]cn2)cc1` [Example 131, 4-[3-(4-Trifluoromethylphenoxy)propyl]-1H-imidazole] is 6.4-fold lower in Ki: 90 ± 27 nM for the first, 14 ± 6 nM for the second. The second binds more tightly here.

same assay, conditions: read-out: Inhibition of release by exogenous histamine

`NCCc1c[nH]cn1` [histamine, reference compound] was tested, and the inhibition at 1 µM was roughly 50%.
